From patent publication US8198273B2, “Compounds and methods for kinase modulation, and indications therefor” (Plexxikon Inc., priority 2009, dated 2012)
pIC50: −log10 of the molar value.

Legend:
Format in all cases: in vitro ADME
CYP1A2 = target: T1, CYP1A2 (Homo sapiens, UniProt P05177); assay: CYP1A2 inhibition (fluorescent substrate); conditions: CYP1A2, CEC substrate; read-out: Cyp IC50 1A2
T1 sequence (P05177 1-516): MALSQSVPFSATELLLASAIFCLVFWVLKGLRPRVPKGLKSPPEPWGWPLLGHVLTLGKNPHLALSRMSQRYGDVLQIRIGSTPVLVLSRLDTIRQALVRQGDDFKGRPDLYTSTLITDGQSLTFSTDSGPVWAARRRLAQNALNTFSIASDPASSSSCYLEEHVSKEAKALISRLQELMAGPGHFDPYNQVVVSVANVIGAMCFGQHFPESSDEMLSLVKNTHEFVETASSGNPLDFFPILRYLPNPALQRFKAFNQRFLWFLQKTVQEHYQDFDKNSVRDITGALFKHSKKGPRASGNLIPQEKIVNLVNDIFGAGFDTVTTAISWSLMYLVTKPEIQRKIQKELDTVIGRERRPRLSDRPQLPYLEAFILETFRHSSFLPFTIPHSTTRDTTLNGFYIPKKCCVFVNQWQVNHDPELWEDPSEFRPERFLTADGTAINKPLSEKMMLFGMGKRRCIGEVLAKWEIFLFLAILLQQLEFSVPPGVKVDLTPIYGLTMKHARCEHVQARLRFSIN
Procedure, shortened: (§1)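 First, 100 mM DMSO stocks are diluted into acetonitrile, then twofold through co-factor mix for 10 points. Next, mixtures are preincubated 10 min at 37 °C.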

CYP2D6 = CYP2D6 (Homo sapiens, UniProt P10635); assay: CYP2D6 inhibition (fluorescent substrate); conditions: CYP2D6, AMMC substrate; read-out: Cyp IC50 2D6
Chain of CYP2D6 (P10635 whole entry): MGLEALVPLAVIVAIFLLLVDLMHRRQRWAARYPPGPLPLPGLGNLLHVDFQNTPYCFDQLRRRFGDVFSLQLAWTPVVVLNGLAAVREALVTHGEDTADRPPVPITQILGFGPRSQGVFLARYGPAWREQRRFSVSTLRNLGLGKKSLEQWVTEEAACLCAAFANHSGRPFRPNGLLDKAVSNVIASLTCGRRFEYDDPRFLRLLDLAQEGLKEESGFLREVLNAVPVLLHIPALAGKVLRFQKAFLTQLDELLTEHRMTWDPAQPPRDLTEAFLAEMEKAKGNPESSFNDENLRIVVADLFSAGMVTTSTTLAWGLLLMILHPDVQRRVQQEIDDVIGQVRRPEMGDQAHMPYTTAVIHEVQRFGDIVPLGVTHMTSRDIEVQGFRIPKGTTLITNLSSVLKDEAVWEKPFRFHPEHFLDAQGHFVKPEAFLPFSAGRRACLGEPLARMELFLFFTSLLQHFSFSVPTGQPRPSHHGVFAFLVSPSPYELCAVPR
Procedure, shortened: as §1

CYP3A4(BQ) = CYP3A4(BQ) (Homo sapiens, UniProt P08684); assay: CYP3A4(BQ) inhibition (fluorescent substrate); conditions: read-out: Cyp IC50 3A4(BQ)
Chain of CYP3A4(BQ) (P08684 whole entry): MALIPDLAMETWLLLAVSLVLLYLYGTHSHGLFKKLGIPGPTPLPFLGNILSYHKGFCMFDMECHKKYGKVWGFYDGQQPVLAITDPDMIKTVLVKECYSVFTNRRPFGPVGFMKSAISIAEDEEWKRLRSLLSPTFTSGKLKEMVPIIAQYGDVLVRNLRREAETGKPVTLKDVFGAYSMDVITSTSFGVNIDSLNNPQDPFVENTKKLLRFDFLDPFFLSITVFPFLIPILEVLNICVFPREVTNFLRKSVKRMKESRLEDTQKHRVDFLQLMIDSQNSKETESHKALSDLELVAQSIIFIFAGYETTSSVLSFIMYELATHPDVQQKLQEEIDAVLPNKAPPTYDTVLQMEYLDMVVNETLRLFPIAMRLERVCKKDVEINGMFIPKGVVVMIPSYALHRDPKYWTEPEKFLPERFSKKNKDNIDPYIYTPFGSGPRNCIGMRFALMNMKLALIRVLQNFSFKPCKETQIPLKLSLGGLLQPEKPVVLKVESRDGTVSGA
Procedure, shortened: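 Compound, from a 100 mM DMSO stock and diluted 1:1 over 10 points in co-factor mix, was incubated at 37° C with enzyme and a known substrate. Decrease in fluorescent product against concentration gave the IC50.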

Measured: pIC50

CCCS(=O)(=O)Nc1ccc(F)c(C(=O)c2c[nH]c3ncc(-c4ccc(N(C)C)nc4)cc23)c1F [P-2229, Propane-1-sulfonic acid {3-[5-(6-dimethylamino-pyridin-3-yl)-1H-pyrrolo[2,3-b]pyridine-3-carbonyl]-2,4-difluoro-phenyl}-amide]
< 5.00: all assays above
